# Source: patent publication EP0899270B1, “Indolylmethyl-N,N'-bisacylpiperazines as neurokinine receptor antagonists” (Solvay Pharmaceuticals GmbH, priority 1997, dated 1999)
# Read-outs that look alike come from different tables or passages of the source.
# Experiments:
# humanen NK-1-Rezeptoren = target: T1, humanen NK-1-Rezeptoren (Homo sapiens, UniProt P25103); test: Binding of test substances to NK-1 receptors in vitro ([3H]-Substanz P displacement, CHO cell membranes); conditions: [3H]-Substanz P as ligand; membranes of CHO cells expressing human NK-1 receptor; Ki calculated from IC50; read-out: Ki-Wert für die Affinität zu humanen NK-1-Rezeptoren
# T1 construct: expressed in transfected cells; host or cells: CHO cells (membrane preparation)
# T1 sequence (P25103 whole entry): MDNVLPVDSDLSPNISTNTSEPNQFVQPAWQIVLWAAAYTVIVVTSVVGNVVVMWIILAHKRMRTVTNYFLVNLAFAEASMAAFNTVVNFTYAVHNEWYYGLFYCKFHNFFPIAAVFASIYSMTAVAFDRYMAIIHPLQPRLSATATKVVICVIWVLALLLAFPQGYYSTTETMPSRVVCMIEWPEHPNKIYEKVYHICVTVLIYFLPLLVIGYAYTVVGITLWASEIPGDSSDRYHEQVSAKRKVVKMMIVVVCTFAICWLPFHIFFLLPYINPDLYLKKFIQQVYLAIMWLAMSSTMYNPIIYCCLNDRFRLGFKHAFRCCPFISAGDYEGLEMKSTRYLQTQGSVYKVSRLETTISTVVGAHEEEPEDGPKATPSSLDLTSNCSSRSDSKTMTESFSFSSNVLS
# Description: 1. Bestimmung des Bindungsvermögens der Testsubstanzen an NK-1-Rezeptoren in vitro.
# Die Affinität der Testsubstanzen zu humanen NK-1-Rezeptoren wird in vitro gemessen. Bestimmt wird die Hemmung der Bindung des physiologischen Neurokinins (Substanz P) an Neurokinin-1-Rezeptoren.
# Die Rezeptor-Bindungsstudien werden mit [^3H]-Substanz P als Ligand durchgeführt. Für den Bindungsversuch werden verschiedene Proben einer Membranpräparation von CHO-Zellen (= […] des chinesischen Hamsters, […]), die den humanen NK-1-Rezeptor exprimieren, mit einer Lösung des markierten Liganden inkubiert, wobei die Inkubationsansätze keine Testsubstanz oder Zusätze unterschiedlicher Konzentrationen an Testsubstanz enthalten. Anschließend wird in den Proben jeweils eine Trennung von gebundenem und freiem Liganden mit Hilfe einer Glasfiber-Filtration vorgenommen. Die im Filter verbleibende Fraktion wird mehrmals mit Pufferlösung gewaschen und anschließend wird die Radioaktivität der im Filter verbliebenen Fraktion mit einem Beta-Scintillationszähler gemessen. Es wird als IC50 der jeweiligen Testsubstanz diejenige Konzentration bestimmt, welche eine halbmaximale Verdrängung des gebundenen Liganden bewirkt. Aus dieser wird die entsprechende Inhibitionskonstante (Ki-Wert) der Testsubstanz berechnet. […]
# humanen NK-2-Rezeptoren = target: T2, humanen NK-2-Rezeptoren (Homo sapiens, UniProt P21452); test: Binding of test substances to NK-2 receptors in vitro (SR 48,968 displacement, CHO cell membranes); conditions: SR 48,968 as ligand; membranes of CHO cells expressing human NK-2 receptor; read-out: Ki (Affinität der Testsubstanzen zu humanen NK-2-Rezeptoren)
# T2 sequence (P21452 1-398): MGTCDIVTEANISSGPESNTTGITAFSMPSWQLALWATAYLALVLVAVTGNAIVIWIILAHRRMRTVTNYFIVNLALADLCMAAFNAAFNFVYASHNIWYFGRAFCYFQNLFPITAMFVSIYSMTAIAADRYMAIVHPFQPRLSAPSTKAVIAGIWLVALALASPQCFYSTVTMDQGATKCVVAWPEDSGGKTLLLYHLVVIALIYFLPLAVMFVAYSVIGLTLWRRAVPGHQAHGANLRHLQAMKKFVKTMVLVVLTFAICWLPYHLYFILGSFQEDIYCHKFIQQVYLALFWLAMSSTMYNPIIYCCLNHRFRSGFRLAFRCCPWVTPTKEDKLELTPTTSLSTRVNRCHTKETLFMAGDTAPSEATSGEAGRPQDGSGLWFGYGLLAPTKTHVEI
# Description: 2. Bestimmung des Bindungsvermögens der Testsubstanzen an NK-2-Rezeptoren in vitro
# Die Affinität der Testsubstanzen zu humanen NK-2-Rezeptoren wird in vitro gemessen. Bestimmt wird die Hemmung der Bindung der Verbindung SR-48,968 an NK-2-Rezeptoren. SR-48,968 ist eine als spezifischer NK-2-Antagonist bekannte synthetisch hergestellte Verbindung.
# Die Rezeptor-Bindungsstudien werden mit SR 48,968 als Ligand durchgeführt. Die Versuchsdurchführung entspricht der im pharmakologischen Test zur Bestimmung des Bindungsvermögens der Testsubstanzen an NK-1-Rezeptoren in vitro angegebenen Methode. Im Unterschied hierzu werden nunmehr aber verschiedene Proben einer Membranpräparation von CHO-Zellen verwendet, welche den humanen NK-2-Rezeptor exprimieren. In diesem Testmodell zeigten die in der folgenden Tabelle 1 aufgeführten Beispielsubstanzen die angegebenen Ki-Werte für die Affinität zu humanen NK-2-Rezeptoren: Tabelle 1: Affinität der Testsubstanzen zu humanen NK-2-Rezeptoren
# NK-1-Rezeptor = target: T3, NK-1-Rezeptor (Cavia porcellus, UniProt P30547); test: Functional NK-1 antagonism on isolated guinea pig aorta rings in vitro (inhibition of Substanz P induced tone relaxation); parameters: species or system Pirbright-White Meerschweinchen; conditions: aorta rings toned with Phenylephrin, stimulated with 0,01 µmol Substanz P; read-out: IC50 (halbmaximale Hemmung der Tonusrelaxation)
# T3 construct: Ringpräparaten der Aorta von Pirbright-White Meerschweinchen; from tissue; host or cells: isolated aorta rings of Pirbright-White guinea pigs
# T3 sequence (P30547 whole entry): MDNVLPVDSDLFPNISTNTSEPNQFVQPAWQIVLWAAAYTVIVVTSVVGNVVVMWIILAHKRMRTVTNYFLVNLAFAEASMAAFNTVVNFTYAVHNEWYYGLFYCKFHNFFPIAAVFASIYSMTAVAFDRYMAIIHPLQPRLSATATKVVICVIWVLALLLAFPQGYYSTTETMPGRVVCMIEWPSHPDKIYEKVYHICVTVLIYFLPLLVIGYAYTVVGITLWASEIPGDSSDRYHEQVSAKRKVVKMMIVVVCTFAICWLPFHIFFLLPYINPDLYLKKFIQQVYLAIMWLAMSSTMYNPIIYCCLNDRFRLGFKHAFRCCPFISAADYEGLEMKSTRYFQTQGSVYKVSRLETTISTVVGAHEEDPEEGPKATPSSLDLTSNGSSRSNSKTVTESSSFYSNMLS
# Description: 3. Bestimmung des funktionellen NK-1-Antagonismus der Testsubstanzen an isoliertem Gewebe vom Meerschweinchen in vitro
# Die NK-1-Rezeptor-antagonisierende Wirkung der Testsubstanzen wurde an isolierten, in einer oxygenierten Nährlösung gehaltenen Ringpräparaten der Aorta von Pirbright-White Meerschweinchen in vitro gemessen. Bestimmt wird die Hemmung der nach Stimulierung mit dem NK-1-Agonisten Substanz P hervorgerufenen Tonusrelaxation der Aortapräparate durch die Testsubstanzen.
# Zur Messung der Kontraktion der Gefäßmuskulatur werden die Präparate an einem Haken fixiert, durch einen Faden mit einem Kraftmessungsgerät verbunden und die Kontraktionen werden jeweils an einem Schreiber registriert. Die Aortapräparate werden mit Phenylephrin tonisiert. Anschließend werden die NK-1-Rezeptoren der Präparate vor und nach der Gabe der Prüfsubstanz mit 0,01 µmol Substanz P stimuliert, wodurch eine Relaxation des Tonus herbeigeführt wird. Die Relaxationen vor und nach Gabe der Prüfsubstanz werden in Prozent quantifiziert. Als Kenngröße wird die Konzentration der halbmaximalen Hemmung (= IC50) errechnet, welche diejenige Konzentration angibt, bei der eine halbmaximale Hemmung der Tonusrelaxation eintritt.
# In diesem Testmodell zeigten die in der folgenden Tabelle 2 aufgeführten Beispielsubstanzen die angegebenen IC50-Werte für die halbmaximale Hemmung : Tabelle 2: Funktioneller NK-1-Antagonismus der Testsubstanzen an isoliertem Meerschweinchen-Gewebe
# [1] = tested on: durch Substanz P induzierter Blutdrucksenkung; test: Substance P antagonistic effect in vivo (Substanz P induced hypotension in guinea pigs); parameters: species or system Meerschweinchen; conditions: Cavia porcellus, 1 h, 50 pmol Substanz P i.v., evaluated after 60 minutes, read-out: ED50 (50%ige Hemmung der Substanz P-induzierten Blutdrucksenkung)
# Description: 4. Bestimmung der Substanz-P-antagonistischen Wirkung der Testsubstanzen in vivo.
# Zum Nachweis der Substanz-P-antagonistischen Wirkung der Testsubstanzen wurde als Standardtestmodell für Substanz-P-induzierte pharmakologische Effekte die durch Substanz-P-Applikation hervorgerufene Hypotension in Meerschweinchen verwendet. Es wurde die Hemmwirkung der Testsubstanzen gegenüber durch Substanz P induzierter Blutdrucksenkung nach intravenöser (= i.v.) und intraduodenaler (= i.d.) Applikation der Testsubstanzen bestimmt.
# Männlichen Meerschweinchen werden in Narkose (Ketamin 67 mg/ kg, Xylazine 13 mg/kg) jeweils ein Katheter in eine Arteria Carotis Communis und in eine Vena Jugularis implantiert. Der arterielle Katheter dient zur Blutdruckmessung. Die Messung erfolgt mit einem Statham 23d/B Druckaufnehmer. Über den venösen Zugang erfolgt die Gabe von Substanz P bzw. bei intravenöser Gabe auch die Applikation der Testsubstanz. Nach einer Äquilibrierungsphase von 20 Minuten werden 50 pmol/Tier Substanz P als Bolus i.v. appliziert. Danach erfolgt die Gabe der Testsubstanz. Bei der i.v. Untersuchung wird die Testsubstanz in Dosierungen von 0.1, 0.46 bzw. 1.0 µmol/kg einer Gruppe von jeweils 4 bis 6 Tieren intravenös appliziert. Die Kontrollgruppe erhält die entsprechende Menge einer physiologischen Kochsalzlösung. […]
SMILES,Ki (humanen NK-1-Rezeptoren) [nM],Ki (humanen NK-2-Rezeptoren) [nM],IC50 (NK-1-Rezeptor) [nM],ED50 ([1]; i.d.-Applikation) [µmol/kg],"ED50 ([1]; iv, i.v.-Applikation) [µmol/kg]"
"COc1ccccc1CNCCNC(=O)N1CCN(C(=O)c2cc(C(F)(F)F)cc(C(F)(F)F)c2)[C@H](Cc2c[nH]c3ccccc23)C1 [Beispiel 1, (2R)-1-[3,5-Bis(trifluormethyl)benzoyl]-2-(1H-indol-3-ylmethyl)-4-(2-[N-(2-methoxybenzyl)aminoethyl]aminocarbonyl}piperazin]",2.1,60,1,0.08,0.2
COc1ccccc1CN(C)CCNC(=O)N1CCN(C(=O)c2cc(C(F)(F)F)cc(C(F)(F)F)c2)C(Cc2c[nH]c3ccccc23)C1 (stereo not drawn) [Beispiel 2],,50,1.2,,
O=C(NCCNCc1ccc(F)cc1)N1CCN(C(=O)c2cc(C(F)(F)F)cc(C(F)(F)F)c2)C(Cc2c[nH]c3ccccc23)C1 (stereo not drawn) [Beispiel 3],,300,1.5,,
